Results: the supplement of paper PMC10307832

Tests used:
Test in all cases: relative viability (nuclei count vs DMSO), 5 days (fraction); higher = more cells survive
[1] = test system: RERF-LC-KJ
Procedure, shortened: (§1)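 Lung cancer cell lines were pin-tool dosed in 1536-well plates on the day after seeding, with either a lone drug or a fixed anchor-drug dose plus five library-drug doses (not always all listed) in √10 steps. Nuclei were counted on 4× images after 5 days. Relative viability is the ratio of treated-well to vehicle-well nuclei counts, with each value a median of duplicate plates.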

[2] = test system: NCI-H1651
Procedure, shortened: as §1

[3] = test system: CAL-12T
Procedure, shortened: as §1

[4] = test system: EPLC-272H
Procedure, shortened: as §1

[5] = test system: ChaGo-K-1
Procedure, shortened: as §1

[6] = test system: HCC-78
Procedure, shortened: as §1

[7] = test system: NCI-H1734
Procedure, shortened: as §1

[8] = test system: NCI-H460
Procedure, shortened: as §1

[9] = test system: NCI-H1944
Procedure, shortened: as §1

[10] = test system: NCI-H3122
Procedure, shortened: as §1

[11] = test system: NCI-H2087
Procedure, shortened: as §1

[12] = test system: UMC-11
Procedure, shortened: as §1

[13] = test system: NCI-H2228
Procedure, shortened: as §1

[14] = test system: NCI-H1793
Procedure, shortened: as §1

[15] = test system: ABC-1
Procedure, shortened: as §1

[16] = test system: NCI-H1395
Procedure, shortened: as §1

[17] = test system: NCI-H2170
Procedure, shortened: as §1

[18] = test system: LU99A
Procedure, shortened: as §1

[19] = test system: HCC-366
Procedure, shortened: as §1

[20] = test system: LC-2-ad
Procedure, shortened: as §1

[21] = test system: NCI-H2405
Procedure, shortened: as §1

[22] = test system: PC-3 [JPC-3]
Procedure, shortened: as §1

[23] = test system: LOU-NH91
Procedure, shortened: as §1

[24] = test system: NCI-H1755
Procedure, shortened: as §1

SMILES: Clc1ccc(Nc2nnc(Cc3ccncc3)c3ccccc23)cc1 [Vatalanib] + COc1cc2c(Oc3ccc(NC(=O)C4(C(=O)Nc5ccc(F)cc5)CC4)cc3F)ccnc2cc1OCCCN1CCOCC1 [Foretinib] (partner 0.25 µM)
- relative viability ([1]; first compound 0.04 µM): 0.889
- relative viability ([1]; first compound 0.1265 µM): 0.927
- relative viability ([1]; first compound 0.4 µM): 0.925
- relative viability ([1]; first compound 1.265 µM): 0.89
- relative viability ([1]; first compound 4 µM): 0.766
- relative viability ([2]; first compound 0.04 µM): 0.885
- relative viability ([2]; first compound 0.1265 µM): 0.768
- relative viability ([2]; first compound 0.4 µM): 0.94
- relative viability ([2]; first compound 1.265 µM): 0.803
- relative viability ([2]; first compound 4 µM): 0.817
- relative viability ([3]; first compound 0.04 µM): 1.07
- relative viability ([3]; first compound 0.1265 µM): 1.16
- relative viability ([3]; first compound 0.4 µM): 1.05
- relative viability ([3]; first compound 1.265 µM): 1.04
- relative viability ([3]; first compound 4 µM): 1.05
- relative viability ([4]; first compound 0.04 µM): 0.645
- relative viability ([4]; first compound 0.1265 µM): 0.711
- relative viability ([4]; first compound 0.4 µM): 0.763
- relative viability ([4]; first compound 1.265 µM): 0.669
- relative viability ([4]; first compound 4 µM): 0.841
- relative viability ([5]; first compound 0.04 µM): 1
- relative viability ([5]; first compound 0.1265 µM): 0.916
- relative viability ([5]; first compound 0.4 µM): 0.976
- relative viability ([5]; first compound 1.265 µM): 0.881
- relative viability ([5]; first compound 4 µM): 0.893
- relative viability ([6]; first compound 0.04 µM): 0.531
- relative viability ([6]; first compound 0.1265 µM): 0.551
- relative viability ([6]; first compound 0.4 µM): 0.535
- relative viability ([6]; first compound 1.265 µM): 0.503
- relative viability ([6]; first compound 4 µM): 0.47
- relative viability ([7]; first compound 0.04 µM): 0.878
- relative viability ([7]; first compound 0.1265 µM): 0.833
- relative viability ([7]; first compound 0.4 µM): 0.912
- relative viability ([7]; first compound 1.265 µM): 0.736
- relative viability ([7]; first compound 4 µM): 0.782
- relative viability ([8]; first compound 0.04 µM): 1.11
- relative viability ([8]; first compound 0.1265 µM): 0.894
- relative viability ([8]; first compound 0.4 µM): 0.93
- relative viability ([8]; first compound 1.265 µM): 0.934
- relative viability ([8]; first compound 4 µM): 1.06
- relative viability ([9]; first compound 0.04 µM): 0.934
- relative viability ([9]; first compound 0.1265 µM): 0.891
- relative viability ([9]; first compound 0.4 µM): 0.936
- relative viability ([9]; first compound 1.265 µM): 0.892
- relative viability ([9]; first compound 4 µM): 0.87
- relative viability ([10]; first compound 0.04 µM): 0.997
- relative viability ([10]; first compound 0.1265 µM): 0.978
- relative viability ([10]; first compound 0.4 µM): 0.939
- relative viability ([10]; first compound 1.265 µM): 0.897
- relative viability ([10]; first compound 4 µM): 0.954
- relative viability ([11]; first compound 0.04 µM): 1.15
- relative viability ([11]; first compound 0.1265 µM): 1.08
- relative viability ([11]; first compound 0.4 µM): 1.27
- relative viability ([11]; first compound 1.265 µM): 0.958
- relative viability ([11]; first compound 4 µM): 1.03
- relative viability ([12]; first compound 0.04 µM): 1.12
- relative viability ([12]; first compound 0.1265 µM): 0.94
- relative viability ([12]; first compound 0.4 µM): 0.916
- relative viability ([12]; first compound 1.265 µM): 0.94
- relative viability ([12]; first compound 4 µM): 1.02
- relative viability ([13]; first compound 0.04 µM): 0.941
- relative viability ([13]; first compound 0.1265 µM): 0.928
- relative viability ([13]; first compound 0.4 µM): 0.968
- relative viability ([13]; first compound 1.265 µM): 0.946
- relative viability ([13]; first compound 4 µM): 0.778
- relative viability ([14]; first compound 0.04 µM): 0.769
- relative viability ([14]; first compound 0.1265 µM): 0.787
- relative viability ([14]; first compound 0.4 µM): 0.686
- relative viability ([14]; first compound 1.265 µM): 0.663
- relative viability ([14]; first compound 4 µM): 0.608
- relative viability ([15]; first compound 0.04 µM): 1.32
- relative viability ([15]; first compound 0.1265 µM): 1.11
- relative viability ([15]; first compound 1.265 µM): 1.18
- relative viability ([15]; first compound 4 µM): 0.989
- relative viability ([16]; first compound 0.04 µM): 0.994
- relative viability ([16]; first compound 0.1265 µM): 1.1
- relative viability ([16]; first compound 0.4 µM): 1.08
- relative viability ([16]; first compound 1.265 µM): 0.938
- relative viability ([16]; first compound 4 µM): 1.02
- relative viability ([17]; first compound 0.04 µM): 1.03
- relative viability ([17]; first compound 0.1265 µM): 1.09
- relative viability ([17]; first compound 0.4 µM): 1.04
- relative viability ([17]; first compound 1.265 µM): 0.978
- relative viability ([17]; first compound 4 µM): 1.02
- relative viability ([18]; first compound 0.04 µM): 0.809
- relative viability ([18]; first compound 0.1265 µM): 0.842
- relative viability ([18]; first compound 0.4 µM): 0.917
- relative viability ([18]; first compound 1.265 µM): 0.75
- relative viability ([18]; first compound 4 µM): 0.848
- relative viability ([19]; first compound 0.04 µM): 0.85
- relative viability ([19]; first compound 0.1265 µM): 0.8
- relative viability ([19]; first compound 0.4 µM): 0.895
- relative viability ([19]; first compound 1.265 µM): 0.885
- relative viability ([19]; first compound 4 µM): 0.949
- relative viability ([20]; first compound 0.04 µM): 0.999
- relative viability ([20]; first compound 0.1265 µM): 0.777
- relative viability ([20]; first compound 1.265 µM): 0.852
- relative viability ([20]; first compound 4 µM): 0.87
- relative viability ([21]; first compound 0.04 µM): 1.04
- relative viability ([21]; first compound 0.1265 µM): 1.06
- relative viability ([21]; first compound 1.265 µM): 1.02
- relative viability ([21]; first compound 4 µM): 0.965
- relative viability ([22]; first compound 0.04 µM): 1.05
- relative viability ([22]; first compound 0.1265 µM): 0.977
- relative viability ([22]; first compound 0.4 µM): 1.05
- relative viability ([22]; first compound 1.265 µM): 0.987
- relative viability ([22]; first compound 4 µM): 1.02
- relative viability ([23]; first compound 0.04 µM): 0.887
- relative viability ([23]; first compound 0.1265 µM): 0.956
- relative viability ([23]; first compound 1.265 µM): 0.937
- relative viability ([23]; first compound 4 µM): 0.91
- relative viability ([24]; first compound 0.04 µM): 0.88
- relative viability ([24]; first compound 0.1265 µM): 0.964
- relative viability ([24]; first compound 0.4 µM): 0.954
- relative viability ([24]; first compound 1.265 µM): 0.905
- relative viability ([24]; first compound 4 µM): 0.846
